# Measured values taken from publication PMC3604073, “Chemerin Is an Antimicrobial Agent in Human Epidermis” (PLoS ONE, 2013).
# Experiments:
# E. coli ATCC 25922 = test: Radial diffusion assay (RDA); type: cell-based; conditions: peptides at 100 µM, low salt conditions
# Method: The indicated bacteria were grown to mid-logarithmic phase in 10 ml of full-strength (3% w/v) TSB as previously described. The microorganisms were then washed once with 10 mM Tris, pH 7.4. 4×10^6 bacterial CFUs were then added to 15 ml of the underlay agarose gel, consisting of 0.03% (w/v) TSB, 1% (w/v) low electroendosmosis type (EEO) agarose (Sigma) and 0.02% (v/v) Tween 20 (Sigma), with or without 0.15 M NaCl. The underlay was poured into a Ø 144 mm Petri dish. After agarose solidification, 4 mm-diameter wells were punched and 6 µl of chemerin-derived peptides or LL37 (Innovagen AB) was added to each well. Plates were incubated at 37°C for 3 hours to allow diffusion of the peptides. The underlay gel was then covered with 15 ml of molten overlay (6% TSB and 1% Low-EEO agarose in dH2O). Antimicrobial activity of a peptide was visualized as a zone of clearing around each well after 18–24 hours of incubation at 37°C.
# E. coli = conditions: evaluated at 2 µM; cited from earlier work
Molecule,inhibition of growth zones in RDA (E. coli ATCC 25922),E. coli survival (E. coli)
"DWKKPECKVRPNGRKRKCLA [p5, synthetic chemerin-derived peptide]",inhibited growth zones,–
"RKCLACIKLGSEDKVLGRLV [p6, synthetic chemerin-derived peptide]",inhibited growth zones,–
"pro-chem163S: chemerin precursor (holoprotein) with the inhibitory C-terminal peptide (protein, UniProt Q99969 21-163, looked up, pro-form) pro-form: ELTEAQRRGLQVALEEFHKHPPVQWAFQETSVESAVDTPFPAGIFVRLEFKLQQTSCRKRDWKKPECKVRPNGRKRKCLACIKLGSEDKVLGRLVHCPIETQVLREAEEHQETQCLRVQRAGEDPHSFYFPGQFAFSKALPRS",–,59±13%
